Experimental findings from ChEMBL document CHEMBL5257032, “Therapeutic potential of coumarins as antiviral agents” (Eur J Med Chem, 2016) are described below.

The structures appear in SMILES notation. Converted amounts (≈) assume the structure as drawn. “And” between values parts separate entries of the source, which are not always exact repeats. Equal entries are not always repeated.

The test system of data set [1] is Human immunodeficiency virus 1. Put plainly: Antiviral activity against HIV-1 infected in human Jurkat cells. In kind it is functional, organism-based. The note with it: Human immunodeficiency virus 1, Jurkat.
Data set [2] addresses T1, Human immunodeficiency virus type 1 protease (Human immunodeficiency virus 1, UniProt Q72874). The data set can be described thus: (§1) Inhibition of HIV-1 protease.
Data set [3] is described as follows: Inhibition of Hepatitis C virus NS5B polymerase. More on the design: species or system Hepacivirus hominis.
Data set [4] concerns Human immunodeficiency virus 1. The data set can be described thus: Antiviral activity against HIV-1 infected in human H9 cells. In kind it is functional, organism-based. The note with it: Human immunodeficiency virus 1, H9.
For data set [5], the target named is T1, Human immunodeficiency virus type 1 protease. The data set can be described thus: Binding affinity to HIV-1 protease assessed as inhibition constant.
In data set [6] the test system is Human immunodeficiency virus. The data set can be described thus: Antiviral activity against HIV. It is filed as functional, organism-based. The note with it: Human immunodeficiency virus 1.
Data set [7] is described as follows: Half life in dog. It is filed as ADME, Canis lupus familiaris. Particulars: in vivo.
The nature of data set [8]: Binding affinity to HIV protease assessed as inhibition constant. More on the design: species or system Human immunodeficiency virus.
In data set [9] the target is Human immunodeficiency virus type 1 protease (Human immunodeficiency virus 1) (UniProt Q72874). The description is as §1.
Data set [10] has as its system Hepatitis C virus. Put plainly: Antiviral activity against HCV assessed as inhibition of RNA replication. In kind it is functional, organism-based, Hepacivirus hominis.
The nature of data set [11]: Therapeutic index, ratio of IC50 for cytotoxicity against human H9 cells to EC50 for antiviral activity against HIV-1 infected in H9 cells. In kind it is toxicity, cell-based. The note with it: read-out: Ratio IC50/EC50.
In data set [12] the test system is Human immunodeficiency virus 1. Put plainly: Antiviral activity against HIV-1. It is filed as functional, organism-based.
Data set [13] deals with Human immunodeficiency virus. Put plainly: Antiviral activity against HIV infected in human H9 cells. Particulars: Human immunodeficiency virus 1, H9; read-out: EC50. In kind it is functional, organism-based.
The subject of data set [14] is Human immunodeficiency virus 1. Put plainly: Antiviral activity against HIV-1 infected in CEM-SS cells. Particulars: Human immunodeficiency virus 1, CEM-SS. It is filed as functional, organism-based.
Data set [15] concerns the target Human immunodeficiency virus type 1 reverse transcriptase (Human immunodeficiency virus 1, UniProt Q72547). Put plainly: Inhibition of HIV1 reverse transcriptase.
Data set [16] concerns Human alphaherpesvirus 1. Put plainly: Antiviral activity against Herpes simplex virus 1. It is filed as functional, organism-based.
Data set [17] is described as follows: Inhibition of HIV protease. More on the design: species or system Human immunodeficiency virus.

In turn, `CC(C)=CCc1c(O)c(C(=O)C(C)C)c(O)c2c(-c3ccccc3)cc(=O)oc12` [MESUOL] displayed an IC50 in [1] of 2 µM.

In [2], `CCCC1(CCC)CC(O)=C(C(c2ccccc2)C2CC2)C(=O)O1` (stereo not drawn) returned an IC50 of 5 µM.

In [3], `COc1cc2c(cc1O)oc(=O)c1c3cc(O)c(O)cc3oc21` gave an IC50 of 18.5 µM. In [2], `O=c1oc(-c2ccccc2)cc(O)c1Sc1ccccc1` had a half-maximal inhibitory concentration (IC50) of 3 µM.

Consider `O=c1oc(-c2ccccc2)cc(O)c1C(SC1CCCC1)C1CCCC1` (stereo not drawn), for which the midpoint of inhibition in data set [2], the IC50, lay at 0.225 µM. With `C/C=C(\C)O[C@@H]1c2c(ccc3ccc(=O)oc23)OC(C)(C)[C@@H]1OC(C)=O`, the EC50 in [4] (read-out: EC50) stood at 4.6 µM. For the molecule `CCC(c1cccc(NS(=O)(=O)c2ccc(C#N)cn2)c1)c1c(O)c2c(oc1=O)CCCC2` (stereo not drawn), in data set [4] (read-out: ED50 (the source's name)), the EC50 stood at 0.95 µM. Further, in [5], the Ki was determined as 50 pM. As to `N#Cc1ccc(S(=O)(=O)Nc2cccc(C(c3c(O)c4c(oc3=O)CCCCCC4)C3CC3)c2)cc1` (stereo not drawn), in data set [6], the IC50 is 1.5 µM. The molecule further showed a half-life in data set [7] of 6 h. In addition, the inhibition constant (Ki) in [8] came to 0.0008 µM.

With `O=c1oc2ccccc2c(O)c1C(c1ccc2c(c1)OCO2)c1c(O)c2ccccc2oc1=O`, in data set [9], the ID50 worked out at 30 µM. In data set [6], `COc1ccc2c(O)c(-c3ccccc3)c(=O)oc2c1` displayed a half-maximal inhibitory concentration (IC50) of 23.8 µM. Molecule `O=C(O)COc1ccc(-c2cc(O)c(SCCc3ccccc3)c(=O)o2)cc1` came in with an IC50 in [2] of 0.16 µM. For the molecule `O=c1oc2ccc(Br)cc2cc1CSc1nc2cc(F)ccc2[nH]1`, the EC50 in [10] turned out to be 3.4 µM. `CC(C)(C)OC(=O)NCCNc1cccc(C(c2c(O)c3c(oc2=O)CCCCCC3)C2CC2)c1` (stereo not drawn) showed an IC50 in [6] of 1 µM. In addition, in data set [8], the inhibition constant (Ki) is 0.0006 µM and 0.004 µM. With `CC1(C)Oc2ccc3ccc(=O)oc3c2[C@@H](OC(=O)[C@@]23CC[C@](C)(C(=O)O2)C3(C)C)[C@H]1OC(=O)C12CCC(C)(C(=O)O1)C2(C)C`, in [11], the selectivity ratio is 137000. For the same molecule, the EC50 in data set [4] (read-out: EC50) was determined as 0.000256 µM. `CCNC(=O)Nc1cccc(C(c2c(O)c3c(oc2=O)CCCCCC3)C2CC2)c1` (stereo not drawn): in data set [8], the Ki was 0.072 µM. `CCC(Cc1ccccc1)c1cc(O)c(C(CC)c2ccccc2)c(=O)o1` (stereo not drawn) had an IC50 in data set [12] of 3 µM. As for `CC(C)(Cl)C(O)COc1c2occc2cc2ccc(=O)oc12` (stereo not drawn), the EC50 in data set [13] was found to be 2.25 µg/mL (≈ 6.97 µM).

As to `O=c1oc2ccccc2c(O)c1Sc1c(O)c2ccccc2oc1=O`, the ID50 in data set [9] is 21 µM. In data set [1], `CC(C)=CCc1c(O)c(C(=O)C(C)C)c2oc(=O)cc(-c3ccccc3)c2c1O` [ISOMESUOL] returned a 50% inhibitory concentration (IC50) of 2 µM. This lies in the single-digit micromolar range. In the case of `CCCc1cc(=O)oc2c3c(c4c(c12)OC(C)(C)C=C4)O[C@H](C)[C@@H](C)C3=O`, the EC50 in data set [14] came out at 1.2 µM. In addition, the IC50 in data set [15] was 19 µM. With `CCC(c1cccc(NC(=O)CCNC(=O)OC(C)(C)C)c1)c1c(O)c2ccccc2oc1=O` (stereo not drawn), the Ki in [8] amounted to 0.28 µM. Regarding `Cc1cc(=O)oc2c3c(c4c(c12)OC(C)(C)C=C4)O[C@H](C)[C@@H](C)[C@H]3O`, half-maximal inhibition in data set [15] (IC50) was put at 19 µM. In other words, the double-digit micromolar range. Consider `COc1c2ccoc2cc2oc(=O)ccc12` [BERGAPTEN], for which the EC50 in data set [13] amounted to 0.354 µg/mL (≈ 1.64 µM).

In turn, `COc1ccc(/C=N\NC(=O)COc2cc(=O)oc3ccccc23)cc1` returned an MIC in data set [16] of 200 µg/mL (≈ 568 µM). In the case of `O=c1oc2ccccc2c(O)c1C(c1ccc(C(c2c(O)c3ccccc3oc2=O)c2c(O)c3ccccc3oc2=O)cc1)c1c(O)c2ccccc2oc1=O`, in data set [9], the ID50 was determined as 1.7 µM. Moreover, the IC50 in [2] was 11.5 µM. In turn, `O=C(O)CCCCC1(c2ccccc2)CC(O)=C(SCCc2ccccc2)C(=O)O1` (stereo not drawn) returned an IC50 in [2] of 5 µM. As for `CCC(c1cccc(NC(=O)CNC(=O)OC(C)(C)C)c1)c1c(O)c2ccccc2oc1=O` (stereo not drawn), the inhibition constant Ki in [8] was determined as 0.16 µM. As to `COc1ccc(C2OC(COc3cc(=O)oc4ccccc34)=NN2C(C)=O)cc1` (stereo not drawn), the MIC in [16] is 130 µg/mL (≈ 330 µM). `COC(C)(C)C(O)COc1c2ccoc2cc2oc(=O)ccc12` (stereo not drawn): the EC50 in data set [13] was 33 µg/mL (≈ 104 µM). On to `CCCCCCc1cc2c(O)c(C(c3ccccc3)c3c(O)c4cc(CCCCCC)c(O)cc4oc3=O)c(=O)oc2cc1O`, for which the ID50 in [9] was 0.32 µM.

In the case of `CCC(c1ccccc1)c1c(O)c2c(oc1=O)CCC2` (stereo not drawn), the Ki in [8] turned out to be 0.7 µM. On to `O=c1oc2c(c(O)c1C(c1ccccc1)C1CC1)CCCCCC2` (stereo not drawn), for which, in data set [8], the Ki came out at 0.015 µM. Also, 57 µM corresponded to half-maximal inhibition in data set [17] (IC50). Turning to `CC(=O)CC(c1ccccc1)c1c(O)c2ccc(C)c(C)c2oc1=O` (stereo not drawn), the half-inhibitory concentration (IC50) in data set [2] is 1.9 µM. In other words, the single-digit micromolar range.

`CSc1ccc(-c2cc3ccccc3oc2=O)cc1` had an IC50 in [6] of 18.2 µM. The molecule `O=c1oc2ccccc2c(O)c1C(c1ccccc1)c1c(O)c2ccccc2oc1=O` had an IC50 in data set [2] of 43 µM.
